This note sets out measurements from ChEMBL document CHEMBL2203108, “Induction of microtubule-damage, mitotic arrest, Bcl-2 phosphorylation, Bak activation, and mitochondria-dependent caspase cascade is involved in human Jurkat T-cell apoptosis by aruncin B from Aruncus dioicus var. kamtschaticus” (Bioorg Med Chem Lett, 2012).

The test system of data set [1] is Jurkat. In words: Induction of microtubule damage in human Jurkat T cells overexpressing Bcl2 after 36 hrs by immunostaining method. It is filed as cell-based.
For data set [2], the system named is Jurkat. In words: Induction of microtubule damage in human Jurkat T cells overexpressing Neo after 36 hrs by immunostaining method. It is filed as cell-based.
The subject of data set [3] is Jurkat. In words: Induction of cell cycle arrest in human Jurkat T cells overexpressing Bcl2 assessed as G2/M phase cells after 36 hrs by flow cytometry (reference value: 2.4%). Type of data set: functional. (Flow cytometry measures light scatter and fluorescence of single cells or particles in a stream.)
Data set [4] has as its system Jurkat. Description: Induction of cell cycle arrest in human Jurkat T cells overexpressing Neo assessed as G2/M phase cells after 36 hrs by flow cytometry (reference value: 4.7%). It is filed as functional.
For data set [5], the system named is Jurkat. Description: Induction of apoptosis in human Jurkat T cells overexpressing Neo assessed as cellular protrusions after 36 hrs by light microscopy. It is filed as functional, cell-based.
In data set [6] the test system is Jurkat. Description: Induction of apoptosis in human Jurkat T cells overexpressing Bcl2 after 36 hrs by flow cytometry. It is filed as functional, cell-based.
For data set [7], the system named is Jurkat. Description: Induction of apoptosis in human Jurkat T cells overexpressing Bcl2 assessed as cellular protrusions after 36 hrs by light microscopy. Type of data set: functional, cell-based.
Data set [8] relates to Jurkat. Description: Induction of apoptosis in human Jurkat T cells overexpressing Neo after 36 hrs by flow cytometry. It is filed as functional, cell-based.
Data set [9] deals with Jurkat. Description: Induction of apoptosis in human Jurkat T cells overexpressing Bcl2 assessed as cell viability at 30 ug/ml after 36 hrs by MTT assay. Particulars: read-out: Activity.
Data set [10] relates to Jurkat. Description: cells. Particulars: Homo sapiens, 36 h, read-out: Activity.
Description: Induction of apoptosis in human Jurkat T cells overexpressing Neo assessed as cell viability at 7.5 ug/ml after 36 hrs by MTT assay
In data set [11] the test system is Jurkat. Description: Cytotoxicity against human Jurkat T cells assessed as cell viability at 60 ug/ml after 36 hrs by MTT assay relative to control. Particulars: read-out: Activity. For orientation: Tetrazolium assays rely on reduction of a dye to a coloured formazan, in cell work by metabolically active cells.
In data set [12] the test system is Jurkat. In words: cells. Particulars: Homo sapiens, 36 h, read-out: Activity. The source holds these as a separate data set.
Description: Induction of apoptosis in human Jurkat T cells overexpressing Neo assessed as cell viability at 15 ug/ml after 36 hrs by MTT assay
For data set [13], the system named is Jurkat. In words: cells. Particulars: Homo sapiens, 36 h, read-out: Activity. The source holds these as a separate data set.
Description: Induction of apoptosis in human Jurkat T cells overexpressing Bcl2 assessed as cell viability at 15 ug/ml after 36 hrs by MTT assay
Data set [14] relates to Jurkat. Description: Induction of apoptosis in human Jurkat T cells overexpressing Neo assessed as cell viability at 30 ug/ml after 36 hrs by MTT assay. Particulars: read-out: Activity.
Data set [15] in a line: Cytotoxicity against human normal peripheral T cells after 36 hrs by MTT assay. Particulars: T-cell.
A short description of data set [16]: Cytotoxicity against human normal peripheral T cells assessed as cell viability at 60 ug/ml after 36 hrs by MTT assay relative to control.
Data set [17] in a line: Cytotoxicity against human PHA-stimulated T cells assessed as cell viability at 30 ug/ml after 36 hrs by MTT assay relative to control. Particulars: read-out: Activity.
In data set [18] the test system is Jurkat. In words: Cytotoxicity against human Jurkat T cells assessed as cell viability at 30 ug/ml after 36 hrs by MTT assay relative to control. Particulars: read-out: Activity.
Data set [19] can be described thus: Cytotoxicity against human PHA-stimulated T cells assessed as cell viability at 60 ug/ml after 36 hrs by MTT assay relative to control. Particulars: read-out: Activity.
A short description of data set [20]: Cytotoxicity against human PHA-stimulated T cells after 36 hrs by MTT assay. Particulars: T-cell.
For data set [21], the system named is Jurkat. In words: cells. Particulars: Homo sapiens, 36 h, read-out: Activity. The source holds these as a separate data set.
Description: Induction of apoptosis in human Jurkat T cells overexpressing Bcl2 assessed as cell viability at 7.5 ug/ml after 36 hrs by MTT assay
Data set [22] concerns Jurkat. In words: Cytotoxicity against human Jurkat T cells after 36 hrs by MTT assay.
Data set [23] has as its system Jurkat. In words: cells. Particulars: Homo sapiens, 36 h, read-out: Activity. This is another data set of the same source.
Description: Cytotoxicity against human Jurkat T cells assessed as cell viability at 15 ug/ml after 36 hrs by MTT assay relative to control
The next data set is described as follows: cells. Particulars: Homo sapiens, T-cell, 36 h, read-out: Activity.

≈ marks a conversion by molar mass, not a printed value. Calls of active or inactive are those of the source. The rule behind the calls is not given here.

As for `COC(=O)Nc1nc2cc(C(=O)c3cccs3)ccc2[nH]1` [NOCODAZOLE], the outcome in the data set on Jurkat [1], in the data set with Jurkat [2], with Jurkat [5], in the data set on Jurkat [7] and in the data set with Jurkat [8] was Active. In addition, the Activity in the data set with Jurkat [3] worked out at 5.6%; in the data set with Jurkat [4], 40.3%. In addition, the outcome with Jurkat [6] was inactive.

For `O=c1c(-c2ccc(O)cc2)coc2cc(O)cc(O)c12` [GENISTEIN], the result with Jurkat [1], with Jurkat [2], in the data set with Jurkat [5], in the data set with Jurkat [6] and in the data set on Jurkat [7] was inactive. For the same compound, the values for the Activity in the data set with Jurkat [3] and in the data set with Jurkat [4] were 6.7% and 35%, respectively. Besides, the result in the data set on Jurkat [8] was Active.

As for `CCOC(C)(C)/C=C1/C=C(C(=O)O)C(O)CO1` (configuration not stated) [ARUNCIN B], the viability at 30 µg/mL in the data set on Jurkat [9] came out at 61.2%; in the data set on Jurkat [14], 44.9%; in [17], 68.5%; in the data set on Jurkat [18] it was 36.1%. The viability at 7.5 µg/mL came out at 82% in the data set with Jurkat [10] and 81.5% in the data set on Jurkat [21]. In addition, the viability at 60 µg/mL in the data set on Jurkat [11] is 24.5%; in data set [19], 25%. Further, the viability at 15 µg/mL with Jurkat [12] was 57.4%; in the data set with Jurkat [13] it was 71.5%; in the data set with Jurkat [23], 67.7%; in “cells”, 85.9%. The half-inhibitory concentration (IC50) in data set [15] was over 60 µg/mL; in data set [20], 49 µg/mL (≈ 202 µM); with Jurkat [22], 22 µg/mL (≈ 90.8 µM). Moreover, in data set [16], the viability at 36 h, 60 ug/ml stood at 63.8%.

A word on the IC50: it is the concentration that inhibits the measured activity by half.
